Source: PubChem BioAssay (NCI)
Values joined by “and” are separate entries in the source; they are usually repeats but may differ in a detail not shown here. Identical values can stand only once.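 48-hour exposure; five concentrations; linearly interpolated endpoints. GI50 is the concentration that inhibits growth by half. The concentration for full growth arrest is given as TGI.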

Experiments:
Experiment in all cases: NCI anticancer screen, dose series, 48 h
NCI-H23 lung = system: NCI-H23 lung
HOP-92 NSCLC = system: HOP-92 NSCLC
HL-60(TB) leukemia = system: HL-60(TB) leukemia
HOP-62 NSCLC = system: HOP-62 NSCLC
HCT-116 colon = system: HCT-116 colon
TK-10 renal = system: TK-10 renal
OVCAR-4 ovarian = system: OVCAR-4 ovarian
OVCAR-3 ovarian = system: OVCAR-3 ovarian
HS 578T breast = system: HS 578T breast
LOX IMVI melanoma = system: LOX IMVI melanoma
DU-145 prostate = system: DU-145 prostate
PC-3 prostate = system: PC-3 prostate
KM12 colon = system: KM12 colon
SN12C renal = system: SN12C renal
MDA-MB-468 breast = system: MDA-MB-468 breast
UACC-62 melanoma = system: UACC-62 melanoma
NCI/ADR-RES ovarian = system: NCI/ADR-RES ovarian
SW-620 colon = system: SW-620 colon
MDA-MB-435 = system: MDA-MB-435
MALME-3M melanoma = system: MALME-3M melanoma
SF-268 CNS = system: SF-268 CNS
UO-31 renal = system: UO-31 renal
A498 renal = system: A498 renal
SNB-75 CNS = system: SNB-75 CNS
SNB-19 CNS = system: SNB-19 CNS
NCI-H522 lung = system: NCI-H522 lung
SK-OV-3 ovarian = system: SK-OV-3 ovarian
RXF 393 renal = system: RXF 393 renal
OVCAR-5 ovarian = system: OVCAR-5 ovarian
SK-MEL-28 melanoma = system: SK-MEL-28 melanoma
CAKI-1 renal = system: CAKI-1 renal
ACHN renal = system: ACHN renal
HCC-2998 colon = system: HCC-2998 colon
BT-549 breast = system: BT-549 breast
T-47D breast = system: T-47D breast
MOLT-4 leukemia = system: MOLT-4 leukemia
UACC-257 melanoma = system: UACC-257 melanoma
CCRF-CEM leukemia = system: CCRF-CEM leukemia
OVCAR-8 ovarian = system: OVCAR-8 ovarian
NCI-H226 lung = system: NCI-H226 lung
SR leukemia = system: SR leukemia
HT29 colon = system: HT29 colon
MCF7 breast = system: MCF7 breast
RPMI-8226 leukemia = system: RPMI-8226 leukemia
MDA-MB-231 breast = system: MDA-MB-231 breast
786-0 renal = system: 786-0 renal
SK-MEL-2 melanoma = system: SK-MEL-2 melanoma
EKVX NSCLC = system: EKVX NSCLC
K-562 leukemia = system: K-562 leukemia
M14 melanoma = system: M14 melanoma
HCT-15 colon = system: HCT-15 colon
COLO 205 colon = system: COLO 205 colon
SF-539 CNS = system: SF-539 CNS

COc1cc2cc(C(=O)N3C[C@@H](CCl)c4c3cc(OC(=O)N3CCN(C(=O)CCC(=O)N5CCN(C)CC5)[C@@H]5CSSC[C@@H]53)c3ccccc43)[nH]c2c(OC)c1OC
GI50 (NCI-H23 lung): 10.3 nM and 18.6 nM
TGI (NCI-H23 lung): 50.5 nM and 88.7 nM
GI50 (HOP-92 NSCLC): 95.1 nM and 178 nM
TGI (HOP-92 NSCLC): 875 nM and 752 nM
GI50 (HL-60(TB) leukemia): 53 nM and 48 nM
TGI (HL-60(TB) leukemia): 1090 nM and 2390 nM
GI50 (HOP-62 NSCLC): 41.3 nM
TGI (HOP-62 NSCLC): 231 nM
GI50 (HCT-116 colon): 154 nM
TGI (HCT-116 colon): 11600 nM
GI50 (TK-10 renal): 663 nM and 1050 nM
TGI (TK-10 renal): 25000 nM and 22200 nM
GI50 (OVCAR-4 ovarian): 86.3 nM
TGI (OVCAR-4 ovarian): 662 nM
GI50 (OVCAR-3 ovarian): 53.9 nM
TGI (OVCAR-3 ovarian): 131 nM
GI50 (HS 578T breast): 266 nM and 292 nM
TGI (HS 578T breast): 1830 nM and 2450 nM
GI50 (LOX IMVI melanoma): 37.6 nM and 69.2 nM
TGI (LOX IMVI melanoma): 114 nM and 276 nM
GI50 (DU-145 prostate): 13.6 nM and 24.5 nM
TGI (DU-145 prostate): 25000 nM and 10200 nM
GI50 (PC-3 prostate): 57.7 nM and 479 nM
TGI (PC-3 prostate): 25000 nM and 10500 nM
GI50 (KM12 colon): 74.7 nM and 131 nM
GI50 (SN12C renal): 32.8 nM
TGI (SN12C renal): 7040 nM
GI50 (MDA-MB-468 breast): 37.3 nM
TGI (MDA-MB-468 breast): 161 nM
GI50 (UACC-62 melanoma): 43.6 nM and 136 nM
TGI (UACC-62 melanoma): 158 nM and 324 nM
GI50 (NCI/ADR-RES ovarian): 64.4 nM
TGI (NCI/ADR-RES ovarian): 268 nM
GI50 (SW-620 colon): 55.5 nM
TGI (SW-620 colon): 25000 nM
GI50 (MDA-MB-435): 46.6 nM and 147 nM
TGI (MDA-MB-435): 102 nM and 298 nM
GI50 (MALME-3M melanoma): 45.9 nM and 134 nM
TGI (MALME-3M melanoma): 102 nM and 284 nM
GI50 (SF-268 CNS): 58.3 nM
TGI (SF-268 CNS): 608 nM
GI50 (UO-31 renal): 75 nM
TGI (UO-31 renal): 2840 nM
GI50 (A498 renal): 122 nM and 218 nM
TGI (A498 renal): 1400 nM and 471 nM
GI50 (SNB-75 CNS): 41.8 nM and 79.8 nM
TGI (SNB-75 CNS): 148 nM and 354 nM
GI50 (SNB-19 CNS): 34 nM and 90.8 nM
TGI (SNB-19 CNS): 25000 nM and 16000 nM
GI50 (NCI-H522 lung): 43.5 nM and 55.4 nM
TGI (NCI-H522 lung): 114 nM and 364 nM
GI50 (SK-OV-3 ovarian): 72.2 nM
TGI (SK-OV-3 ovarian): 374 nM
GI50 (RXF 393 renal): 37.4 nM and 34.7 nM
TGI (RXF 393 renal): 74.8 nM and 138 nM
GI50 (OVCAR-5 ovarian): 82.8 nM
TGI (OVCAR-5 ovarian): 386 nM
GI50 (SK-MEL-28 melanoma): 47.6 nM and 159 nM
TGI (SK-MEL-28 melanoma): 106 nM and 333 nM
GI50 (CAKI-1 renal): 101 nM and 172 nM
TGI (CAKI-1 renal): 1470 nM and 701 nM
GI50 (ACHN renal): 30.5 nM
TGI (ACHN renal): 93.2 nM
GI50 (HCC-2998 colon): 28.7 nM and 54.2 nM
TGI (HCC-2998 colon): 68.5 nM and 188 nM
GI50 (BT-549 breast): 41 nM and 144 nM
TGI (BT-549 breast): 132 nM and 413 nM
GI50 (T-47D breast): 118 nM and 229 nM
TGI (T-47D breast): 25000 nM and 19700 nM
GI50 (MOLT-4 leukemia): 12.4 nM and 62.8 nM
TGI (MOLT-4 leukemia): 25000 nM and 4720 nM
GI50 (UACC-257 melanoma): 131 nM and 273 nM
TGI (UACC-257 melanoma): 711 nM and 1430 nM
GI50 (CCRF-CEM leukemia): 270 nM
TGI (CCRF-CEM leukemia): > 100000 nM
GI50 (OVCAR-8 ovarian): 42.5 nM
TGI (OVCAR-8 ovarian): 160 nM
GI50 (NCI-H226 lung): 453 nM and 245 nM
TGI (NCI-H226 lung): 1670 nM and 3180 nM
GI50 (SR leukemia): 6.22 nM and 19.5 nM
GI50 (HT29 colon): 57.9 nM and 142 nM
GI50 (MCF7 breast): 14.9 nM
TGI (MCF7 breast): 1590 nM
GI50 (RPMI-8226 leukemia): 64.6 nM and 142 nM
TGI (RPMI-8226 leukemia): 2720 nM and 13200 nM
GI50 (MDA-MB-231 breast): 64 nM and 204 nM
TGI (MDA-MB-231 breast): 160 nM and 536 nM
GI50 (786-0 renal): 49 nM
TGI (786-0 renal): 135 nM
GI50 (SK-MEL-2 melanoma): 47.1 nM and 42.8 nM
TGI (SK-MEL-2 melanoma): 93.5 nM and 131 nM
GI50 (EKVX NSCLC): 71.7 nM and 207 nM
TGI (EKVX NSCLC): 403 nM and 1380 nM
GI50 (K-562 leukemia): 122 nM and 89.1 nM
TGI (K-562 leukemia): 25000 nM and 9070 nM
GI50 (M14 melanoma): 36.6 nM and 124 nM
TGI (M14 melanoma): 118 nM and 377 nM
GI50 (HCT-15 colon): 65.5 nM and 244 nM
TGI (HCT-15 colon): 1070 nM and 10500 nM
GI50 (COLO 205 colon): 49.4 nM and 145 nM
TGI (COLO 205 colon): 133 nM and 315 nM
GI50 (SF-539 CNS): 38.5 nM and 38.9 nM
TGI (SF-539 CNS): 91.3 nM and 151 nM
